Data on seven compounds can be found in patent US10487064B1, “Crystalline forms of selective S1P1 receptor modulator and preparation method thereof” (Crystal Pharmatech Co., Ltd., priority 2015, dated 2019).

The conditions of data set [1]: treatment of moderate-to-severe chronic plaque psoriasis; cited from earlier work.
Data set [2] is described as follows: Stability assessment of crystalline forms on storage (XRPD before and after). The format is physicochemical. The following applies: for stability compared with Form C in prior art: general statement; for Solid Form after storage / Crystalline form after storing: XRPD; for physical stability (overall conclusion): storage conditions of the stability assessment. The method, then: 20 mg of sample of Form 2 was stored under 25° C./60% RH, 40° C./75% RH for 6 months, and 80° C. for 3 months. […] 20 mg of sample of Form 3 was stored under 25° C./60% RH and 40° C./75% RH for 6 months.

A short description of data set [3]: Solubility assessment: saturated solutions in FaSSIF, FeSSIF, SGF and water, concentration by HPLC. The format is physicochemical. The following applies: for solubility compared with Form C in prior art: general statement. The method, then: Saturated solution of Form 2 and Form A, Form C disclosed in CN102177144B were prepared in FaSSIF (Fasted state simulated intestinal fluids, pH=6.5), FeSSIF (Fed state simulated intestinal fluids, pH=5.0), SGF (Simulated gastric fluids, pH=1.8), and water. Concentrations in the saturation solutions were measured after 1 hour and 24 hours by HPLC.
Form 3 and Form A, Form C were prepared into saturated solution in FaSSIF (Fasted state simulated intestinal fluids, pH=6.5), FeSSIF (Fed state simulated intestinal fluids, pH=5.0) and water. Concentrations in the saturation solutions were measured after 1 hour and 24 hours by HPLC.

The conditions of data set [4]: cited from earlier work.

In brackets after ≈: the same amount, converted by molar mass. Entries after “also recorded” stand apart in the source; their conditions may differ.

On to `CCC/N=C1\S/C(=C\c2ccc(OC[C@H](O)CO)c(Cl)c2)C(=O)N1c1ccccc1C` [Ponesimod], for which the “result of phase II mid-stage study” value in data set [1] is recorded as “positive results”.

As for `CCC/N=C1\S/C(=C\c2ccc(OC[C@H](O)CO)c(Cl)c2)C(=O)N1c1ccccc1C` [Form 1, Ponesimod], in data set [2], the “stability compared with Form C in prior art” value (shortened to “stability compared with Form C”) is reported as “better”. Further, in data set [3], the “solubility compared with Form C in prior art” value was “better”.

For the compound `CCC/N=C1\S/C(=C\c2ccc(OC[C@H](O)CO)c(Cl)c2)C(=O)N1c1ccccc1C` [Form C, Ponesimod, reference compound], the “solubility (in words)” value in data set [4] is “unsatisfactory”. In addition, the Solubility in data set [3] (FaSSIF pH=6.5, 1 h) was 10 µg/mL (≈ 21.7 µM); in data set [3] (FeSSIF pH=5.0, 1 h), 133 µg/mL (≈ 289 µM); in data set [3] (FeSSIF pH=5.0, 24 h) it was 149 µg/mL (≈ 323 µM); in data set [3] (SGF pH=1.8, 1 h), 29 µg/mL (≈ 62.9 µM); in data set [3] (SGF pH=1.8, 24 h), 24 µg/mL (≈ 52.1 µM). For the same compound, the solubility at 1 h in data set [3] (water, thermodynamic from solid, H2O, 1 h, ND = below the LOD of instrument) was 3 µg/mL (≈ 6.51 µM). Moreover, the solubility at 24 h in data set [3] (water, thermodynamic from solid, H2O, 24 h, ND = below the LOD of instrument) was determined as 1 µg/mL (≈ 2.17 µM).

Take `CCC/N=C1\S/C(=C\c2ccc(OC[C@H](O)CO)c(Cl)c2)C(=O)N1c1ccccc1C` [Form 2, Ponesimod]: the “Solid Form after storage” value in data set [2] (25° C./60% RH, 6 months) is “doesn't change; also recorded: Form 2”; in data set [2] (40° C./75% RH, 6 months), “doesn't change; also recorded: Form 2”; in data set [2] (80° C., 3 months), “doesn't change; also recorded: Form 2”. Besides, the “stability compared with Form C” value in data set [2] is on record as “better”. Also, in data set [2], the “physical stability (overall conclusion)” value is “good physical stability”. The Solubility in data set [3] (FaSSIF pH=6.5, 1 h) came to 17 µg/mL (≈ 36.9 µM); in data set [3] (FaSSIF pH=6.5, 24 h), 33 µg/mL (≈ 71.6 µM); in data set [3] (FeSSIF pH=5.0, 1 h), 996 µg/mL (≈ 2160 µM); in data set [3] (FeSSIF pH=5.0, 24 h), 813 µg/mL (≈ 1760 µM); in data set [3] (SGF pH=1.8, 1 h), 97 µg/mL (≈ 210 µM); in data set [3] (SGF pH=1.8, 24 h), 124 µg/mL (≈ 269 µM). The “solubility compared with Form C in prior art” value in data set [3] is “better”. Besides, the “solubility compared with Form A and Form C” value in data set [3] (in FaSSIF, FeSSIF, and SGF) is given as “higher”.

For the compound `CCC/N=C1\S/C(=C\c2ccc(OC[C@H](O)CO)c(Cl)c2)C(=O)N1c1ccccc1C` [Form 3, Ponesimod], the “Crystalline form after storing” value in data set [2] (25° C./60% RH, 6 months) was “doesn't change; also recorded: Form 3”; in data set [2] (40° C./75% RH, 6 months), “doesn't change; also recorded: Form 3”. The “stability compared with Form C” value in data set [2] was “better”. Besides, the “physical stability (overall conclusion)” value in data set [2] is on record as “good physical stability”. Moreover, the Solubility is 84 µg/mL (≈ 182 µM) in data set [3] (FaSSIF pH=6.5, 1 h); 15 µg/mL (≈ 32.5 µM) in data set [3] (FaSSIF pH=6.5, 24 h); 1168 µg/mL (≈ 2530 µM) in data set [3] (FeSSIF pH=5.0, 1 h); 486 µg/mL (≈ 1050 µM) in data set [3] (FeSSIF pH=5.0, 24 h). In addition, the “solubility compared with Form C in prior art” value in data set [3] is “better”. For the same compound, the “solubility compared with Form A and Form C” value in data set [3] (in FaSSIF and FeSSIF) is on record as “higher”.

Turning to `CCC/N=C1\S/C(=C\c2ccc(OC[C@H](O)CO)c(Cl)c2)C(=O)N1c1ccccc1C` [Form A, Ponesimod, reference compound], in data set [4] (compared with Form C), the thermodynamic stability result is listed as “inferior to Form C”. In addition, the Solubility in data set [3] (FaSSIF pH=6.5, 1 h) came to 7 µg/mL (≈ 15.2 µM); in data set [3] (FaSSIF pH=6.5, 24 h), 4 µg/mL (≈ 8.68 µM); in data set [3] (FeSSIF pH=5.0, 1 h), 141 µg/mL (≈ 306 µM); in data set [3] (FeSSIF pH=5.0, 24 h), 163 µg/mL (≈ 354 µM); in data set [3] (SGF pH=1.8, 1 h) it was 34 µg/mL (≈ 73.8 µM); in data set [3] (SGF pH=1.8, 24 h), 45 µg/mL (≈ 97.6 µM).

As to `CCC/N=C1\S/C(=C\c2ccc(OC[C@H](O)CO)c(Cl)c2)C(=O)N1c1ccccc1C` [Form III, Ponesimod], in data set [4] (at room temperature), the form transformation entry is recorded as “will transform to Form II at room temperature”.

One may read the Solubility as the dissolved amount per volume that the medium holds. Higher therefore signals much dissolved substance. A word on the solubility: it is how much of the substance goes into solution per volume.
